{"source": "patent US11801232B2", "about": "“Targeting of ARID1A-deficient cancers by inhibiting de novo pyrimidine synthesis pathway” (YALE UNIVERSITY, priority 2019, dated 2023)", "tested_on": "γ-H2AX", "test": "Immunoblot and immunofluorescence of γ-H2AX in ES2 cells", "format": "cell-based, human", "details": "ARID1A-knockdown ES2 cells; teriflunomide 15 μM, AZD6738 1.5 μM, VX-970 0.075 μM; 24-72 h", "protocol": "Immunoblot Analysis and Co-Immunoprecipitation Assay. For immunoblotting experiments, cells were lysed in BC200 lysis buffer [20 mM Tris-HCl (pH 7.5), 200 mM NaCl, 1 mM EDTA, 0.2% Nonidet P-40 (NP-40), freshly added complete protease inhibitor cocktail (from Roche), and PhosSTOP phosphatase inhibitor (from Roche)] or in boiling SDS lysis buffer [1% SDS and 10 mM Tris-CI (pH 7.5)], as previously described^21. Protein concentrations were quantified using a modified Lowry assay, and equal protein amounts were loaded onto a 10% SDS-PAGE gel and separated by gel electrophoresis, followed by transfer to a nitrocellulose membrane. The nitrocellulose membrane was stained with Ponceau S to confirm equal protein loading and then blocked in 2% BSA in Tris-buffered saline with 0.1% Tween-20 (tris buffered saline with tween, or TBST). Primary antibody incubation was done for 2 h at room temperature or, for phospho-specific antibodies, overnight at 4° C. An HRP-conjugated secondary antibody was used, followed by detection using enhanced chemiluminescence substrate (from Pierce). Autoradiograph images were scanned and saved as unmodified TIFF images, and densitometry analysis was done with ImageJ (from NIH) software.\nImmunofluorescence. […] Images of cells were acquired using a BZ-X710 fluorescence microscope (from KEYENCE) and analyzed using ImageJ (from NIH)."}
{"smiles": "C[C@@H]1COCCN1c1cc(C2([S@](C)(=N)=O)CC2)nc(-c2cc[nH]c3nccc2-3)n1", "note": "[AZD6738]", "values": [{"measurement": "γ-H2AX protein levels", "result": "increased"}]}
